{"source": "patent US6506339B1", "about": "“Method of sterilization” (Biomedical Design, Inc., priority 1997, dated 2003)", "type_in_all_cases": "cell-based", "key": {"[1]": {"test_system": "Mycobacterium Chelonae ATCC 35752", "assay": "Sterilization test, Mycobacterium chelonae in sterile cups at room temperature (Example 1)", "details": "EDC plus Sulfo-NHS, 20% isopropyl alcohol", "procedure": "Porcine aortic roots are fixed by cross-linking according to the method described in U.S. Pat. No. 5,447,536. After fixation, the valves are stored in 10 mM HEPES, 0.85% NaCl, 20% isopropyl alcohol, pH 7.4, at 4° C. The sterility tests described in the following examples are in most cases conducted in the presence of bioprosthetic heart valve tissue; when such tissue is not present, the solutions are simply filtered through a 0.45 micron filter attached to a funnel (filter funnel). The filters are then rinsed with peptone water to eliminate residual chemicals on the membrane that may prevent growth of the organisms tested. Such membrane filters are then incubated on TSA plates at about 32° to 33° C., e.g. 32.5° C. When an aortic valve is inoculated with microorganisms for test purposes and then submitted to sterilization, the solution is filtered as described above. The aortic valve tissue is then washed for 20 minutes in a reciprocating shaker in the presence of peptone water containing Tween 80 in order to extract all indigenous spores or microorganisms from the tissue. This solution is filtered and then incubated as described above. […] Resistance to calcification is assessed by subdermal implantation of sterilized leaflets and aortic wall coupons in young rats, as also described in the '536 U.S. patent. […]"}, "[2]": {"test_system": "Bacillus subtilis (niger) spores", "assay": "Sterilization without isopropyl alcohol with porcine aortic root tissue (Example 4C)", "details": "40° C., 1.5×10^6 spores with root tissue, no isopropyl alcohol", "procedure": "An experiment similar to that of Example 4A is carried out using slightly higher concentrations of EDC and including porcine aortic root tissue. Bacillus subtilis (niger) spores at levels of 1.5×10^6 are inoculated for approximately 10 minutes in sterile cups each containing root tissue. Solutions (50 ml) of 50, 75 and 100 mM EDC in 10 mM TRIS, 0.85% NaCl, pH 6.5 are prewarmed to 40° C. and then rapidly added to the tissues in the cups. The cups containing the tissue are incubated at 40° C. for 6, 9, 12, 24 and 48 hours; then, the solutions are diluted and filtered in order to collect microorganisms. The valve tissue is washed for 20 minutes in a reciprocating shaker in the presence of peptone water containing Tween 80 in order to extract all spores of microorganisms from the tissue. The solutions from the shakers are filtered through the respective filters to which the original solutions were applied. The filters are rinsed with a 0.1% peptone water solution and incubated on TSA plates for up to 14 days. The plates are examined daily for growth."}, "[3]": {"test_system": "Mycobacterium Chelonae ATCC 35752", "assay": "Sterilization test, Mycobacterium chelonae in sterile cups at room temperature (Example 1)", "parameters": "key: (+) Indicates growth; (−) indicates no growth", "details": "10 mM EDC+1 mM Sulfo-NHS", "procedure": "Porcine aortic roots are fixed by cross-linking according to the method described in U.S. Pat. No. 5,447,536. After fixation, the valves are stored in 10 mM HEPES, 0.85% NaCl, 20% isopropyl alcohol, pH 7.4, at 4° C. The sterility tests described in the following examples are in most cases conducted in the presence of bioprosthetic heart valve tissue; when such tissue is not present, the solutions are simply filtered through a 0.45 micron filter attached to a funnel (filter funnel). The filters are then rinsed with peptone water to eliminate residual chemicals on the membrane that may prevent growth of the organisms tested. Such membrane filters are then incubated on TSA plates at about 32° to 33° C., e.g. 32.5° C. When an aortic valve is inoculated with microorganisms for test purposes and then submitted to sterilization, the solution is filtered as described above. The aortic valve tissue is then washed for 20 minutes in a reciprocating shaker in the presence of peptone water containing Tween 80 in order to extract all indigenous spores or microorganisms from the tissue. This solution is filtered and then incubated as described above. All microbiological testing is performed in a biological laminar flow hood to prevent contamination. The shrinkage temperature and the proteolytic (collagenase and protease) degradation tests are conducted as previously described in the '536 patent. Resistance to calcification is assessed by subdermal implantation of sterilized leaflets and aortic wall coupons in young rats, as also described in the '536 U.S. patent.\nMycobacterium Chelonae ATCC 35752 (˜10^5) was inoculated in sterile cups. A 10 mM HEPES, 0.85% NaCl, pH 6.5 solution containing 10 mM EDC and 1 mM Sulfo-NHS in the presence or absence of 20% isopropyl alcohol was maintained in contact with the bacteria in the cups for various periods of time (treatment duration). The cups were maintained at room temperature, and the solutions were then filtered. The filters were then incubated at about 32-33° C. for up to 6 weeks (incubation duration) using either Trypticase Soy Agar (TSA) plates or Trypticase Soy Broth (TSB). All inoculations were done in duplicate."}}}
{"compound": "CCN=C=NCCCN(C)C.Cl", "note": "[EDC, 1-ethyl-3(3-dimethylaminopropyl)carbodiimide hydrochloride]", "values": [{"measurement": "sterilization treatment time that kills all Mycobacterium chelonae", "setting": "[1]", "value": "≤ 12", "unit": "h"}, {"measurement": "inactivation of spores", "setting": "[2]; 50 mM EDC, 6 hours", "value": "only partial kill"}, {"measurement": "inactivation of spores", "setting": "[2]; 50 mM EDC, 9 hours", "value": "complete inactivation of the spores"}, {"measurement": "inactivation of spores", "setting": "[2]; 75 mM EDC, 6 hours", "value": "effectively inactivates these spores"}, {"measurement": "inactivation of spores", "setting": "[2]; 75 mM EDC, 9 hours", "value": "complete inactivation of the spores"}, {"measurement": "inactivation of spores", "setting": "[2]; 100 mM EDC, 6 hours", "value": "effectively inactivates these spores"}, {"measurement": "inactivation of spores", "setting": "[2]; 100 mM EDC, 9 hours", "value": "complete inactivation of the spores"}, {"measurement": "growth", "setting": "[3]; 20% isopropyl alcohol, treatment 0 hour, incubation 3 Week, TSA", "value": "+,+"}, {"measurement": "growth", "setting": "[3]; 20% isopropyl alcohol, treatment 0 hour, incubation 3 Week, TSB", "value": "+,+"}, {"measurement": "growth", "setting": "[3]; 20% isopropyl alcohol, treatment 0 hour, incubation 4 Week, TSA", "value": "+,+"}, {"measurement": "growth", "setting": "[3]; 20% isopropyl alcohol, treatment 0 hour, incubation 4 Week, TSB", "value": "+,+"}, {"measurement": "growth", "setting": "[3]; 20% isopropyl alcohol, treatment 0 hour, incubation 6 Week, TSA", "value": "+,+"}, {"measurement": "growth", "setting": "[3]; 20% isopropyl alcohol, treatment 0 hour, incubation 6 Week, TSB", "value": "+,+"}, {"measurement": "growth", "setting": "[3]; no isopropyl alcohol, treatment 0 hour, incubation 1 Day, TSA", "value": "+,+"}, {"measurement": "growth", "setting": "[3]; no isopropyl alcohol, treatment 0 hour, incubation 1 Day, TSB", "value": "+,+"}, {"measurement": "growth", "setting": "[3]; no isopropyl alcohol, treatment 0 hour, incubation 1 Week, TSA", "value": "+,+"}, {"measurement": "growth", "setting": "[3]; no isopropyl alcohol, treatment 0 hour, incubation 1 Week, TSB", "value": "+,+"}, {"measurement": "growth", "setting": "[3]; no isopropyl alcohol, treatment 0 hour, incubation 3 Week, TSA", "value": "+,+"}, {"measurement": "growth", "setting": "[3]; no isopropyl alcohol, treatment 0 hour, incubation 3 Week, TSB", "value": "+,+"}, {"measurement": "growth", "setting": "[3]; no isopropyl alcohol, treatment 0 hour, incubation 4 Week, TSA", "value": "+,+"}, {"measurement": "growth", "setting": "[3]; no isopropyl alcohol, treatment 0 hour, incubation 4 Week, TSB", "value": "+,+"}, {"measurement": "growth", "setting": "[3]; no isopropyl alcohol, treatment 0 hour, incubation 6 Week, TSA", "value": "+,+"}, {"measurement": "growth", "setting": "[3]; no isopropyl alcohol, treatment 0 hour, incubation 6 Week, TSB", "value": "+,+"}, {"measurement": "growth", "setting": "[3]; no isopropyl alcohol, treatment 12 hours, incubation 1 Day, TSA", "value": "+,+"}, {"measurement": "growth", "setting": "[3]; no isopropyl alcohol, treatment 12 hours, incubation 1 Day, TSB", "value": "+,+"}, {"measurement": "growth", "setting": "[3]; no isopropyl alcohol, treatment 12 hours, incubation 1 Week, TSA", "value": "+,+"}, {"measurement": "growth", "setting": "[3]; no isopropyl alcohol, treatment 12 hours, incubation 1 Week, TSB", "value": "+,+"}, {"measurement": "growth", "setting": "[3]; no isopropyl alcohol, treatment 12 hours, incubation 3 Week, TSA", "value": "+,+"}, {"measurement": "growth", "setting": "[3]; no isopropyl alcohol, treatment 12 hours, incubation 3 Week, TSB", "value": "+,+"}, {"measurement": "growth", "setting": "[3]; no isopropyl alcohol, treatment 12 hours, incubation 4 Week, TSA", "value": "+,+"}, {"measurement": "growth", "setting": "[3]; no isopropyl alcohol, treatment 12 hours, incubation 4 Week, TSB", "value": "+,+"}, {"measurement": "growth", "setting": "[3]; no isopropyl alcohol, treatment 12 hours, incubation 6 Week, TSA", "value": "+,+"}, {"measurement": "growth", "setting": "[3]; no isopropyl alcohol, treatment 12 hours, incubation 6 Week, TSB", "value": "+,+"}, {"measurement": "growth", "setting": "[3]; no isopropyl alcohol, treatment 24 hours, incubation 1 Day, TSA", "value": "−,−"}, {"measurement": "growth", "setting": "[3]; no isopropyl alcohol, treatment 24 hours, incubation 1 Day, TSB", "value": "−,−"}, {"measurement": "growth", "setting": "[3]; no isopropyl alcohol, treatment 24 hours, incubation 1 Week, TSA", "value": "+,+"}, {"measurement": "growth", "setting": "[3]; no isopropyl alcohol, treatment 24 hours, incubation 1 Week, TSB", "value": "+,+"}, {"measurement": "growth", "setting": "[3]; no isopropyl alcohol, treatment 24 hours, incubation 3 Week, TSA", "value": "+,+"}, {"measurement": "growth", "setting": "[3]; no isopropyl alcohol, treatment 24 hours, incubation 3 Week, TSB", "value": "+,+"}, {"measurement": "growth", "setting": "[3]; no isopropyl alcohol, treatment 24 hours, incubation 4 Week, TSA", "value": "+,+"}, {"measurement": "growth", "setting": "[3]; no isopropyl alcohol, treatment 24 hours, incubation 4 Week, TSB", "value": "+,+"}, {"measurement": "growth", "setting": "[3]; no isopropyl alcohol, treatment 24 hours, incubation 6 Week, TSA", "value": "+,+"}, {"measurement": "growth", "setting": "[3]; no isopropyl alcohol, treatment 24 hours, incubation 6 Week, TSB", "value": "+,+"}, {"measurement": "growth", "setting": "[3]; no isopropyl alcohol, treatment 48 hours, incubation 1 Day, TSA", "value": "−,−"}, {"measurement": "growth", "setting": "[3]; no isopropyl alcohol, treatment 48 hours, incubation 1 Day, TSB", "value": "−,−"}, {"measurement": "growth", "setting": "[3]; no isopropyl alcohol, treatment 48 hours, incubation 1 Week, TSA", "value": "−,−"}, {"measurement": "growth", "setting": "[3]; no isopropyl alcohol, treatment 48 hours, incubation 1 Week, TSB", "value": "−,−"}, {"measurement": "growth", "setting": "[3]; no isopropyl alcohol, treatment 48 hours, incubation 3 Week, TSA", "value": "−,−"}, {"measurement": "growth", "setting": "[3]; no isopropyl alcohol, treatment 48 hours, incubation 3 Week, TSB", "value": "−,−"}, {"measurement": "growth", "setting": "[3]; no isopropyl alcohol, treatment 48 hours, incubation 4 Week, TSA", "value": "−"}, {"measurement": "growth", "setting": "[3]; no isopropyl alcohol, treatment 48 hours, incubation 4 Week, TSB", "value": "+"}, {"measurement": "growth", "setting": "[3]; no isopropyl alcohol, treatment 48 hours, incubation 6 Week, TSA", "value": "−"}, {"measurement": "growth", "setting": "[3]; no isopropyl alcohol, treatment 48 hours, incubation 6 Week, TSB", "value": "+"}, {"measurement": "growth", "setting": "[3]; no isopropyl alcohol, treatment 72 hours, incubation 1 Day, TSA", "value": "−,−"}, {"measurement": "growth", "setting": "[3]; no isopropyl alcohol, treatment 72 hours, incubation 1 Day, TSB", "value": "−,−"}, {"measurement": "growth", "setting": "[3]; no isopropyl alcohol, treatment 72 hours, incubation 1 Week, TSA", "value": "−,−"}, {"measurement": "growth", "setting": "[3]; no isopropyl alcohol, treatment 72 hours, incubation 1 Week, TSB", "value": "−,−"}, {"measurement": "growth", "setting": "[3]; no isopropyl alcohol, treatment 72 hours, incubation 3 Week, TSA", "value": "−,−"}, {"measurement": "growth", "setting": "[3]; no isopropyl alcohol, treatment 72 hours, incubation 3 Week, TSB", "value": "−,−"}, {"measurement": "growth", "setting": "[3]; no isopropyl alcohol, treatment 72 hours, incubation 4 Week, TSA", "value": "−,−"}, {"measurement": "growth", "setting": "[3]; no isopropyl alcohol, treatment 72 hours, incubation 4 Week, TSB", "value": "−,−"}, {"measurement": "growth", "setting": "[3]; no isopropyl alcohol, treatment 72 hours, incubation 6 Week, TSA", "value": "−"}, {"measurement": "growth", "setting": "[3]; no isopropyl alcohol, treatment 72 hours, incubation 6 Week, TSB", "value": "+"}]}
